Results from ChEMBL document CHEMBL1921776, “Synthesis and biological activity of acetyl-protected hydroxybenzyl diethyl phosphates (EHBP) as potential chemotherapeutic agents” (Bioorg Med Chem Lett, 2011).
pIC50: −log10 of the molar value. Calls of active or inactive are those of the source. The rule behind the calls is not given here.

Key:
[1] = test system: BXPC-3; assay: Cytotoxicity against human BxPC3 cells assessed as growth inhibition after 24 hrs by MTT assay; type: functional, cell-based; details: BXPC-3, 24 h
[2] = test system: Jurkat; assay: Cytotoxicity against human Jurkat cells assessed as growth inhibition after 24 hrs by MTT assay; type: functional, cell-based
[3] = test system: HT-29; assay: Cytotoxicity against human HT-29 cells assessed as growth inhibition after 24 hrs by MTT assay; type: functional, cell-based; details: HT-29, 24 h
[4] = test system: MCF7; assay: Cytotoxicity against human MCF7 cells assessed as growth inhibition after 24 hrs by MTT assay; type: functional, cell-based; details: MCF7, 24 h
[5] = test system: HT-29; assay: Induction of apoptosis in human HT-29 cells after 24 hrs using annexin V-FITC and propidium iodide staining by flow cytometry; type: functional, cell-based
[6] = test system: BXPC-3; assay: Ratio of p-NO-ASA IC50 to compound IC50 for human BxPC3 cells assessed as growth inhibition after 48 hrs by trypan blue assay; type: functional
[7] = test system: HT-29; assay: Cell cycle arrest in human HT-29 cells assessed as accumulation of cells at S phase at 3 uM after 24 hrs using propidium iodide staining-based flow cytometry (reference value: 19.4%); type: functional
[8] = test system: A549; assay: Ratio of p-NO-ASA IC50 to compound IC50 for human A549 cells assessed as growth inhibition after 48 hrs by trypan blue assay; type: functional
[9] = test system: HT-29; assay: Cell cycle arrest in human HT-29 cells assessed as increase in G2/M phase after 24 hrs using propidium iodide staining-based flow cytometry; type: functional
[10] = test system: HT-29; assay: Cell cycle arrest in human HT-29 cells assessed as accumulation of cells at G0/G1 phase at 3 uM after 24 hrs using propidium iodide staining-based flow cytometry (reference value: 74.8%); type: functional
[11] = test system: HT-29; assay: Induction of apoptosis in human HT-29 cells at 50 uM after 24 hrs using annexin V-FITC and propidium iodide staining by flow cytometry; type: functional
[12] = test system: LNCaP; assay: Ratio of p-NO-ASA IC50 to compound IC50 for human LNCAP cells assessed as growth inhibition after 48 hrs by trypan blue assay; type: functional
[13] = test system: HT-29; assay: Antiproliferative activity against human HT-29 cells assessed as decrease of PCNA expression after 24 hrs by ELISA; type: functional, cell-based
[14] = test system: HT-29; assay: Cell cycle arrest in human HT-29 cells assessed as accumulation of cells at S phase at 10 uM after 24 hrs using propidium iodide staining-based flow cytometry (reference value: 19.4%); type: functional
[15] = test system: MIA PaCa-2; assay: Ratio of p-NO-ASA IC50 to compound IC50 for human MIAPaCa2 cells assessed as growth inhibition after 48 hrs by trypan blue assay; type: functional
[16] = test system: HT-29; assay: Ratio of p-NO-ASA IC50 to compound IC50 for human HT-29 cells assessed as growth inhibition after 48 hrs by trypan blue assay; type: functional
[17] = test system: HT-29; assay: Induction of apoptosis in human HT-29 cells at 10 uM after 24 hrs using annexin V-FITC and propidium iodide staining by flow cytometry; type: functional
[18] = test system: HT-29; assay: Cell cycle arrest in human HT-29 cells assessed as accumulation of cells at G2/M phase at 10 uM after 24 hrs using propidium iodide staining-based flow cytometry (reference value: 5.8%); type: functional
[19] = test system: HT-29; assay: Cell cycle arrest in human HT-29 cells assessed as accumulation of cells at G2/M phase at 3 uM after 24 hrs using propidium iodide staining-based flow cytometry (reference value: 5.8%); type: functional
[20] = test system: HT-29; assay: Cell cycle arrest in human HT-29 cells assessed as reduction in G0/G1 phase after 24 hrs using propidium iodide staining-based flow cytometry; type: functional
[21] = test system: HCT-15; assay: Ratio of p-NO-ASA IC50 to compound IC50 for human HCT15 cells assessed as growth inhibition after 48 hrs by trypan blue assay; type: functional
[22] = test system: HT-29; assay: Cell cycle arrest in human HT-29 cells assessed as accumulation of cells at G0/G1 phase at 10 uM after 24 hrs using propidium iodide staining-based flow cytometry (reference value: 74.8%); type: functional
[23] = test system: SCC-25; assay: Ratio of p-NO-ASA IC50 to compound IC50 for human SCC25 cells assessed as growth inhibition after 48 hrs by trypan blue assay; type: functional
[24] = test system: BXPC-3; assay: Cytotoxicity against human BxPC3 cells assessed as growth inhibition after 48 hrs by trypan blue assay; type: functional, cell-based; details: BXPC-3, 48 h
[25] = test system: SCC-25; assay: Cytotoxicity against human SCC25 cells assessed as growth inhibition after 48 hrs by trypan blue assay; type: functional, cell-based; details: SCC-25, 48 h
[26] = test system: HT-29; assay: Cytotoxicity against human HT-29 cells assessed as growth inhibition after 48 hrs by trypan blue assay; type: functional, cell-based; details: HT-29, 48 h
[27] = test system: LNCaP; assay: Cytotoxicity against human LNCAP cells assessed as growth inhibition after 48 hrs by trypan blue assay; type: functional, cell-based
[28] = test system: MIA PaCa-2; assay: Cytotoxicity against human MIAPaCa2 cells assessed as growth inhibition after 48 hrs by trypan blue assay; type: functional, cell-based; details: MIA PaCa-2, 48 h
[29] = test system: HCT-15; assay: Cytotoxicity against human HCT15 cells assessed as growth inhibition after 48 hrs by trypan blue assay; type: functional, cell-based; details: HCT-15, 48 h
[30] = test system: A549; assay: Cytotoxicity against human A549 cells assessed as growth inhibition after 48 hrs by trypan blue assay; type: functional, cell-based; details: A549, 48 h
[31] = test system: HT-29; assay: Cell cycle arrest in human HT-29 cells assessed as increase in S phase at 100 to 300 uM after 24 hrs using propidium iodide staining-based flow cytometry; type: functional
[32] = test system: HT-29; assay: Induction of apoptosis in human HT-29 cells at 100 uM after 24 hrs using annexin V-FITC and propidium iodide staining by flow cytometry; type: functional
[33] = test system: HT-29; assay: Cell cycle arrest in human HT-29 cells assessed as increase in G2/M phase at 100 to 300 uM after 24 hrs using propidium iodide staining-based flow cytometry; type: functional
[34] = test system: HT-29; assay: Induction of apoptosis in human HT-29 cells at 300 uM after 24 hrs using annexin V-FITC and propidium iodide staining by flow cytometry; type: functional
[35] = test system: HT-29; assay: Cell cycle arrest in human HT-29 cells assessed as reduction in G0/G1 phase at 100 to 300 uM after 24 hrs using propidium iodide staining-based flow cytometry; type: functional

CCOP(=O)(OCC)OCc1ccc(OC(C)=O)c(C)c1
pIC50 [1]: 6.55 | pIC50 [2]: 6.54 | pIC50 [3]: 6.51 | pIC50 [4]: 6.49

CCOP(=O)(OCC)OCc1ccc(OC(C)=O)cc1
Activity [5]: Dose-dependent effect | Ratio IC50 [6]: 17 | Activity [7]: 38.2% | Ratio IC50 [8]: 17 | Activity [9]: Active | pIC50 [1]: 6.17 | Activity [10]: 53.2% | Activity [11]: 79% | Ratio IC50 [12]: 17 | Activity [13]: Dose-dependent effect | Activity [14]: 40.8% | Ratio IC50 [15]: 17 | Ratio IC50 [16]: 17 | pIC50 [2]: 6.19 | Activity [17]: 25% | Activity [18]: 16.3% | Activity [19]: 9.6% | pIC50 [3]: 6.09 | Activity [20]: Dose-dependent effect | Ratio IC50 [21]: 17 | Activity [22]: 42.9% | pIC50 [4]: 6.17 | Ratio IC50 [23]: 17

CCOP(=O)(OCC)OCc1ccccc1OC(C)=O
pIC50 [1]: 3.81 | pIC50 [2]: 3.96 | pIC50 [3]: 4.08 | pIC50 [4]: 4.20

CC(=O)Oc1ccccc1C(=O)Oc1ccc(CO[N+](=O)[O-])cc1
pIC50 [24]: 5.00 | pIC50 [25]: 5.00 | pIC50 [26]: 5.00 | pIC50 [27]: 5.00 | pIC50 [28]: 5.00 | pIC50 [29]: 5.00 | pIC50 [30]: 5.00

CCOP(=O)(OCC)OCc1ccc(OC(C)=O)c(Cl)c1
pIC50 [1]: 6.19 | pIC50 [2]: 6.17 | pIC50 [3]: 5.89 | pIC50 [4]: 6.15

CCOP(=O)(OCC)OCc1cccc(OC(C)=O)c1
Activity [31]: Active | Activity [9]: Active | pIC50 [1]: 3.79 | Activity [13]: Dose-dependent effect | Activity [32]: 19% | pIC50 [2]: 3.35 | Activity [33]: Active | pIC50 [3]: 3.56 | Activity [20]: Dose-dependent effect | Activity [34]: 79% | Activity [35]: Active | pIC50 [4]: 3.67
